Where only a bound is given, the exact number is not on record here.

The test system of data set [1] is carrageenan-induced mouse paw edema. The data set can be described thus: Carrageenan-induced mouse paw edema. The conditions noted are these: for inhibition in vivo at 300 µmol/kg: Mus musculus, ip, 0.30 mmol/kg i.p., 3.5 h after carrageenan, mean of 6 animals, read-out: % Edema Reduction; for improvement in anti-inflammatory activity: compared to parent flufenamic acid (g) or flufenamol (h). In kind it is in vivo. On the procedure: In vivo anti-inflammatory activity of the synthesized compounds was evaluated as mouse paw edema reduction. Paw edema was induced by subcutaneous injection of a 2% carrageenan suspension in the right paw of mice, the left serving as the control. The activity of the tested compounds (at 0.30 mmol/kg of body weight, i.p.), expressed as % reduction in paw edema 3.5 h after carrageenan injection, is shown in Table 2. […] Moreover, compounds 9 and 10 (antioxidant derivatives of mefenamic acid) caused a 1.5–2-fold improvement in edema reduction compared to that of the parent mefenamic acid (i).
For the in vivo anti-inflammatory activity, Wistar male rats or C57BL/6 mice were injected with 0.025 mL carrageenan (2% w/v solution in saline) i.d. into the right hind paw, with the left paw serving as the control. The test compounds (300 μmol/kg) were given, i.p., after the carrageenan injection, and 3.5 h later, the produced edema was estimated as the paw weight increase. Results are expressed as percentage of the reduction in paw edema and are the means for six animals (per compound).

Data set [2] has as its target T1, soybean lipoxygenase (LOX-3) (Glycine max, UniProt P09186).
T1 sequence (P09186 1-857): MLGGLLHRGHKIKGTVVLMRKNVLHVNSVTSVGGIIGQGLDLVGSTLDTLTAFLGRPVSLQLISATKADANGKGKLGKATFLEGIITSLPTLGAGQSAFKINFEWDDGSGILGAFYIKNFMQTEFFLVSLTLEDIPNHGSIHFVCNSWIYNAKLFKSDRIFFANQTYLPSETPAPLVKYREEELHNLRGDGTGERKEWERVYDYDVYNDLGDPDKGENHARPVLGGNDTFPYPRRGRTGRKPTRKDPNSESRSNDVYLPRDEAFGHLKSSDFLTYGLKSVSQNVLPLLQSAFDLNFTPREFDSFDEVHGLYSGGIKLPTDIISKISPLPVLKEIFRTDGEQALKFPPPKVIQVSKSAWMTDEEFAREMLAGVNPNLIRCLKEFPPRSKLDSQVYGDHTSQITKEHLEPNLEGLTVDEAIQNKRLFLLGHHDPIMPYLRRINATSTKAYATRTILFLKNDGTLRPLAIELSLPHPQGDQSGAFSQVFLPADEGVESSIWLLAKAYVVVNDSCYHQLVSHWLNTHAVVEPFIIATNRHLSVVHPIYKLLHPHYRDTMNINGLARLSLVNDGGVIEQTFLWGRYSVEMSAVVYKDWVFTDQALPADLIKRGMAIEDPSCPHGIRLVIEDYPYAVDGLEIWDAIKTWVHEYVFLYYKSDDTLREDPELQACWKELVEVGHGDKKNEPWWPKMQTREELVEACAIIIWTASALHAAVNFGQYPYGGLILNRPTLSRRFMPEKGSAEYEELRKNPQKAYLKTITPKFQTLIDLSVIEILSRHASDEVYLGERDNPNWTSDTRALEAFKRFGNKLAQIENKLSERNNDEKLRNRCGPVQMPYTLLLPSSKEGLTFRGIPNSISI
The data set can be described thus: Soybean lipoxygenase (LOX-3) inhibition. The conditions noted are these: after 5 min of incubation; sodium linoleate 100 μM, pH 9.0; read-out: IC50 Value on LOX-3. The format is biochemical.
Protocol: The anti-inflammatory effect of the synthesized compounds was initially evaluated in vitro, via their ability to inhibit soybean lipoxygenase (LOX-3).
Lipoxygenase activity was determined using soybean lipoxygenase (250 U/mL) and sodium linoleate (100 μM) as substrate, in Tris–HCl buffer pH 9.0. The test compounds dissolved in methanol were added and the reaction was monitored for 5 min at 28 °C, recording absorbance at 234 nm.

Data set [3] deals with experimentally induced hyperlipidemic mouse model. The data set can be described thus: Tyloxapol (Triton WR 1339)-induced hyperlipidemia. In kind it is in vivo, mice. The conditions noted are these: 84 μmol/kg i.p.; 24 h after tyloxapol. On the procedure: Acute hyperlipidemia was achieved, i.p., by the administration of tyloxapol (Triton WR 1339). The antihyperlipidemic effect of the tested compounds was evaluated as the decrease in total cholesterol (TC) and triglyceride (TG) levels in plasma 24 h after tyloxapol administration. The results are shown in Figure 4A,B. Compounds 9 and 10 reduced TC levels in plasma by 73% and 50%, respectively, and TG levels by 76% and 41%, respectively.
An aqueous solution of Triton WR 1339 was given, i.p., to mice (400 mg/kg of body weight) and one hour later the test compounds (84 μmol/kg of body weight), dissolved in saline or saline only were administered, i.p. After 24 h, blood was taken from the aorta/heart and used for the determination of plasma total cholesterol (TC) and triglyceride (TG) levels, using commercially available kits. Levels of plasma lipids were determined in duplicate while the values presented were the mean from eight animals (per compound).

Data set [4] in a line: Radical scavenging of DPPH. The conditions noted are these: DPPH 200 μM, after incubation for 30 min. The procedure: The antioxidant activity of compounds 1–17 was evaluated via their ability to scavenge the free radical DPPH.
Compounds dissolved in absolute methanol at concentrations of 25–400 μM were added to an equal volume of a methanolic solution of DPPH (final concentration 200 μM) at room temperature (22 ± 2 °C). Absorbance (517 nm) was recorded at different time intervals for 1 h and results were expressed as IC50 (μM) for DPPH after incubation for 30 min [3].
On the technique in general: The DPPH test is a chemical assay of radical scavenging.

As usually defined, the IC50 is the concentration needed to halve the response being measured. Turning to `CC(C)Cc1ccc(C(C)C(=O)OCc2cc(C(C)(C)C)c(O)c(C(C)(C)C)c2)cc1` (centres unmarked) [Compound 1, 3,5-di-tert-butyl-4-hydroxybenzyl 2-(4-isobutylphenyl)propanoate], the inhibition in vivo at 300 µmol/kg in data set [1] came out at 26%. In addition, in data set [2], the IC50 stood at 22 µM.

As for `CC(C)Cc1ccc(C(C)COC(=O)c2cc(C(C)(C)C)c(O)c(C(C)(C)C)c2)cc1` (centres unmarked) [Compound 2, 2-(4-isobutylphenyl)propyl 3,5-di-tert-butyl-4-hydroxybenzoate], the inhibition in vivo at 300 µmol/kg in data set [1] was 56%.

The melting point is the temperature of the solid-liquid transition. The compound `COc1ccc2cc(C(C)COC(=O)c3cc(C(C)(C)C)c(O)c(C(C)(C)C)c3)ccc2c1` (centres unmarked) [Compound 4, 2-(6-methoxynaphthalen-2-yl)propyl 3,5-di-tert-butyl-4-hydroxybenzoate] returned a melting point of 154.1 to 155 °C. In addition, the inhibition in vivo at 300 µmol/kg in data set [1] was determined as 49%. The IC50 in data set [2] was 64 µM.

For the compound `Cc1c(Cl)cccc1Nc1ccccc1C(=O)OCc1cc(C(C)(C)C)c(O)c(C(C)(C)C)c1` [Compound 5, 3,5-di-tert-butyl-4-hydroxybenzyl 2-((3-chloro-2-methylphenyl)amino)benzoate], the inhibition in vivo at 300 µmol/kg in data set [1] came to 55%. The IC50 in data set [2] was greater than 200 µM.

As for `Cc1c(Cl)cccc1Nc1ccccc1COC(=O)c1cc(C(C)(C)C)c(O)c(C(C)(C)C)c1` [Compound 6, 2-((3-chloro-2-methylphenyl)amino)benzyl 3,5-di-tert-butyl-4-hydroxybenzoate], the melting point fell in the range of 141.1 to 141.8 °C. In addition, the inhibition in vivo at 300 µmol/kg in data set [1] came out at 67%. For the same compound, the half-maximal inhibitory concentration (IC50) in data set [2] was greater than 150 µM.

On to `CC(C)(C)c1cc(COC(=O)c2ccccc2Nc2cccc(C(F)(F)F)c2)cc(C(C)(C)C)c1O` [Compound 7, 3,5-di-tert-butyl-4-hydroxybenzyl 2-((3-(trifluoromethyl)phenyl)amino)benzoate], for which the melting point is 87.2 to 88 °C. In addition, in data set [1], the inhibition in vivo at 300 µmol/kg amounted to 38% and the “improvement in anti-inflammatory activity” value is listed as 2–2.5 fold. Moreover, the IC50 in data set [2] is 152 µM.

The compound `CC(C)(C)c1cc(C(=O)OCc2ccccc2Nc2cccc(C(F)(F)F)c2)cc(C(C)(C)C)c1O` [Compound 8, 2-((3-(trifluoromethyl)phenyl)amino)benzyl 3,5-di-tert-butyl-4-hydroxybenzoate] gave a melting point of 119.9 to 120.5 °C. In data set [1], the inhibition in vivo at 300 µmol/kg amounted to 48% and the “improvement in anti-inflammatory activity” value was 2–2.5 fold. Further, in data set [2], the IC50 was determined as 150 µM.

In turn, `Cc1cccc(Nc2ccccc2COC(=O)c2cc(C(C)(C)C)c(O)c(C(C)(C)C)c2)c1C` [Compound 10, 2-((2,3-dimethylphenyl)amino)benzyl 3,5-di-tert-butyl-4-hydroxybenzoate] had a melting point of 136.3 to 136.9 °C. The inhibition in vivo at 300 µmol/kg in data set [1] came out at 54%. Further, in data set [1] (compared to parent mefenamic acid (i)), the “improvement in edema reduction” value is on record as 1.5–2 fold. In data set [2], the IC50 amounted to 15 µM. In addition, in data set [3], the “reduction of total cholesterol (TC) levels in plasma” value was determined as 50% and the “reduction of triglyceride (TG) levels in plasma” value was determined as 41%.

In turn, `CC(C)(C)c1cc(COC(=O)Cc2ccccc2Nc2c(Cl)cccc2Cl)cc(C(C)(C)C)c1O` [Compound 11, 3,5-di-tert-butyl-4-hydroxybenzyl 2-(2-((2,6-dichlorophenyl)amino)phenyl)acetate] came in with a melting point of 149 to 149.7 °C. Also, in data set [1], the inhibition in vivo at 300 µmol/kg turned out to be 40%. In addition, the IC50 in data set [2] stood at 142 µM.

In the case of `CC(C)(C)c1cc(C(=O)OCCc2ccccc2Nc2c(Cl)cccc2Cl)cc(C(C)(C)C)c1O` [Compound 12, 2-((2,6-dichlorophenyl)amino)phenethyl 3,5-di-tert-butyl-4-hydroxybenzoate], the melting point is 147.8 to 149.2 °C. The inhibition in vivo at 300 µmol/kg in data set [1] came out at 54%. In data set [2], the concentration for half-maximal inhibition (IC50) is 122 µM.

For the compound `COc1ccc2c(c1)c(CC(=O)OCc1cc(C(C)(C)C)c(O)c(C(C)(C)C)c1)c(C)n2C(=O)c1ccc(Cl)cc1` [Compound 13, 3,5-di-tert-butyl-4-hydroxybenzyl 2-(1-(4-chlorobenzoyl)-5-methoxy-2-methyl-1H-indol-3-yl)acetate], the melting point fell in the range of 149.3 to 149.9 °C. For the same compound, in data set [1], the inhibition in vivo at 300 µmol/kg was found to be 39%. In addition, the IC50 in data set [2] was determined as 68 µM.

As to `Cc1c(C)c2c(c(C)c1O)CCC(C)(C(=O)OCC(C)c1ccc(CC(C)C)cc1)O2` (centres unmarked) [Compound 14, 2-(4-isobutylphenyl)propyl6-hydroxy-2,5,7,8-tetramethylchromane-2-carboxylate], the melting point was 69.2 to 70 °C. Also, the inhibition in vivo at 300 µmol/kg in data set [1] amounted to 42%. In addition, in data set [4], the midpoint of inhibition, the IC50, lay at 34 µM. Besides, the IC50 in data set [2] is greater than 150 µM.

For `COc1ccc2cc(C(C)COC(=O)C3(C)CCc4c(C)c(O)c(C)c(C)c4O3)ccc2c1` (centres unmarked) [Compound 15, 2-(6-methoxynaphthalen-2-yl)propyl 6-hydroxy-2,5,7,8-tetramethylchromane-2-carboxylate], the inhibition in vivo at 300 µmol/kg in data set [1] was 55%. In data set [4], this compound came in with an IC50 of 147 µM. Further, the IC50 in data set [2] turned out to be 9 µM. For the same compound, in data set [3], the “reduction of total cholesterol (TC) levels in plasma” value is 42% and the “reduction of triglyceride (TG) levels in plasma” value was 65%.

`COc1ccc2c(c1)c(CCOC(=O)C1(C)CCc3c(C)c(O)c(C)c(C)c3O1)c(C)n2C(=O)c1ccc(Cl)cc1` (centres unmarked) [Compound 17, 2-(1-(4-chlorobenzoyl)-5-methoxy-2-methyl-1H-indol-3-yl)ethyl 6-hydroxy-2,5,7,8-tetramethylchromane-2-carboxylate]: in data set [1], the inhibition in vivo at 300 µmol/kg came to 45%. Also, the IC50 in data set [4] is 76 µM; in data set [2], greater than 150 µM.

For the compound `CC(C)Cc1ccc(C(C)CO)cc1` (centres unmarked) [b, Ibuprofenol, reference compound], the inhibition in vivo at 300 µmol/kg in data set [1] worked out at 66%.

Consider `COc1ccc2cc(C(C)CO)ccc2c1` (centres unmarked) [d, 2-(6-methoxynaphthalen-2-yl)propan-1-ol, reference compound], for which the inhibition in vivo at 300 µmol/kg in data set [1] is 40%. Further, the IC50 in data set [2] turned out to be 29 µM.

`Cc1c(Cl)cccc1Nc1ccccc1CO` [f, (2-((3-chloro-2-methylphenyl)amino)phenyl)methanol] returned a melting point of 48.4 to 48.7 °C. Moreover, in data set [1], the inhibition in vivo at 300 µmol/kg worked out at 43%.

For the compound `OCc1ccccc1Nc1cccc(C(F)(F)F)c1` [h, (2-((3-(trifluoromethyl)phenyl)amino)phenyl)methanol, reference compound], the inhibition in vivo at 300 µmol/kg in data set [1] stood at 22%.

In the case of `Cc1cccc(Nc2ccccc2CO)c1C` [j, (2-((2,3-dimethylphenyl)amino)phenyl)methanol, reference compound], the inhibition in vivo at 300 µmol/kg in data set [1] came out at 42%.

For the origin of these results see publication PMC8399014, “Design of Multifaceted Antioxidants: Shifting towards Anti-Inflammatory and Antihyperlipidemic Activity” (Molecules, 2021).
